Data taken from patent US7232800B2, “Derivatives of magainin and methods of production thereof” (priority 2001, dated 2007).
Like-named read-outs stand apart in the source and are kept apart here. Where no end group is shown, it is not given here.

How the values were obtained:
Escherichia coli JM103 = type: cell-based
Method: The anti-microbial effect of the Magainin(Leu21, Ser23, Arg24) was conducted according to the following procedures, with the comparison of that of the naturally occurring Magainin.
The bacterial strain of Escherichia coli JM103 and staphylococcus aureus were employed.
The bacteria were cultivated at 37° centigrade, and diluted to 1×10^6 bacteria/ml. 20 mM of the sterilized Tris-HCl buffer (pH6.5) was added. Then the Magainin derivative and the naturally occurring Magainin II with various concentrations were added respectively, and incubated at 37° centigrade for different time, 50 μl of the cultures was taken and spread on an agar plate, and incubated at 37° centigrade overnight. The remaining bacteria colonies were accounted for, and the percent of the killed bacteria was calculated.
The ant-microbial effects of Magainin (Leu21, Ser23, Arg24) were tested with comparison with that of the naturally occurring Magainin II. […] The anti-microbial effect of Magainin (Leu21, Ser23, Arg24) on Staphylococcus aureus can be seen from table 4, and the result of time-kill study of Magainin (Leu21, Ser23, Arg24) was shown in FIG. 1.

mice of Kun-ming species = assay: Acute toxicity test; type: in vivo; details: one week observation; for Livability: mice
Method: Six mice of Kun-ming species were divided into three groups randomly. Mice in the first group were intraperitoneally injected with 100 μg Magainin (Leu21, Ser23, Arg24) which is prepared by the method described in example 1, Mice in the second group were injected with 200 μg Magainin (Leu21, Ser23, Arg24), while those in the third group were injected with 1000 μg Magainin (Leu21, Ser23, Arg24). The toxicity of Magainin (Leu21, Ser23, Arg24) was determined by observing the influence of injection to the survival of the mice.

[1] = system: erythrocytes (blood derived from SD rat); assay: Hemolysis test; type: cell-based
Method: 3 ml of 0.9% sodium chloride solution was added into three tubes separately, followed by addition of 100 μl blood derived from SD rat (provided by Shanghai Laboratory Animal Center, Chinese Academic Sciences) respectively.
As a negative control, the naturally occurring Magainin peptide (obtained from Sigma) was dissolved in sterile water, and the Magainin peptide solution with a concentration of 1 mg/ml was prepared. 300 μl, 1.5 ml and 3 ml of such solution were added into three tubes respectively. After incubation at room temperature for 30 minutes, centrifugation was conducted at 3000 rpm, and supernates in three tubes was taken to determine the optical density at 590 nm with a spectrophotometer.
In the testing group, Hemolysis effect of the Magainin (Leu21, Ser23, Arg24) was examined. Magainin (Leu21, Ser23, Arg24) peptide was dissolved in sterile water to prepare the solution with a concentration of 1 mg/ml, 300 μl, 1.5 ml and 3 m of the solution were added into three tubes respectively, and the hemolysis test was conducted using the same method as applied to the negative control group.
In the positive control group, 0.1% of Triton X-100 (obtained from Sigma Aldrich) was employed aid the hemolysis test was performed according to the steps prescribed above.
In this test, erythrocyte will be precipitated after centrifigation and supernate appear red in the circumstance hemolysis has occurred.

Row | Substance | Bacteria killed % (Escherichia coli JM103; 10 μg/ml, 3 hr) [%] | Bacteria killed % (Escherichia coli JM103; 10 μg/ml, 4 hr) [%] | Bacteria killed % (Escherichia coli JM103; 20 μg/ml, 3 hr) [%] | Bacteria killed % (Escherichia coli JM103; 20 μg/ml, 4 hr) [%] | Livability (mice of Kun-ming species; 100 μg intraperitoneal injection) [%] | Livability (mice of Kun-ming species; 200 μg intraperitoneal injection) [%] | Livability (mice of Kun-ming species; 1000 μg intraperitoneal injection) [%] | survival of the mice (in words) (mice of Kun-ming species; 100, 200 and 1000 μg intraperitoneal) | Hemolysis % ([1]; 100 μg/ml, 30 minutes room temperature) [%] | Hemolysis % ([1]; 500 μg/ml, 30 minutes room temperature) [%] | Hemolysis % ([1]; 1000 μg/ml, 30 minutes room temperature) [%] | Hemolysis % ([1]; 0.1%, positive control) [%]
1 | GIGKFLHSAKKFGKAFVGEILNSR [Magainin (Leu21, Ser23, Arg24)] | 71.3 | 44.2 | 97.8 | 99.1 | 100 | 100 | 100 | all survived |  |  |  | 
2 | GIGKFLHSAKKFGKAFVGEIMNS [Naturally occurring Magainin, Magainin II] | 75.4 | 84.9 | 97.5 | 99.2 |  |  |  |  | 0 | 0 | 1.9 | 
3 | Triton X-100 [Tritonx-100] |  |  |  |  |  |  |  |  |  |  |  | 100
